Earlier results, collected in PMC11289879 (RSC Chemical Biology, 2024).

Assays:
[1] = system: acute heart failure; details: clinical trial (Novartis; second phase III)

Substance	effect on the treatment of acute heart failure [1]	solubility in an acidic solvent
Human relaxin-2 [H2 relaxin]	no significant effect	–
DSWMEEVIKLCGRELVRAQIAICGMSTWS [B-chain]	–	poorly soluble
